Data from paper PMC8143618, “Biochemical profiling of anti-HIV prodrug Elsulfavirine (Elpida®) and its active form VM1500A against a panel of twelve human carbonic anhydrase isoforms” (Journal of Enzyme Inhibition and Medicinal Chemistry, 2021).

Columns and labels:
hCA I = hCA I (Homo sapiens, UniProt P00915); assay: Stopped flow CO2 hydrase assay, hCA I
Experimental: (§1) An Applied Photophysics stopped-flow instrument has been used for assaying the CA-catalysed CO2 hydration activity[11]. […] The uncatalysed rates were determined in the same manner and subtracted from the total observed rates. Stock solutions of inhibitor (0.1 mM) were prepared in distilled-deionised water and dilutions up to 0.01 nM were done thereafter with the assay buffer. […] The inhibition constants were obtained by non-linear least-squares methods using PRISM 3 and the Cheng–Prusoff equation, as reported earlier[12]^,[13] and represent the mean from at least three different determinations.

hCA VB = hCA VB (Homo sapiens, UniProt Q9Y2D0); assay: Stopped flow CO2 hydrase assay, hCA VB
Experimental: as §1

hCA XIV = hCA XIV (Homo sapiens, UniProt Q9ULX7); assay: Stopped flow CO2 hydrase assay, hCA XIV
hCA XIV, sequence (Q9ULX7 16-337): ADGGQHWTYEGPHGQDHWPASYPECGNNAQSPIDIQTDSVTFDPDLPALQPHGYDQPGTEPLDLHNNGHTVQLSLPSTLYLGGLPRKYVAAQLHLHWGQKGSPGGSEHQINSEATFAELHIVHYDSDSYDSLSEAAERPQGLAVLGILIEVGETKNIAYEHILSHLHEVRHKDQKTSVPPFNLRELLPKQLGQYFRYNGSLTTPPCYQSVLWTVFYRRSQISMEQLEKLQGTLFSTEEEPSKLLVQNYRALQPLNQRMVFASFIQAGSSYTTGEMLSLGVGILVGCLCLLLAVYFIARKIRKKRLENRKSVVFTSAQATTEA
Experimental: as §1

hCA IV = hCA IV (Homo sapiens, UniProt P22748); assay: Stopped flow CO2 hydrase assay, hCA IV
hCA IV, sequence (P22748 19-312): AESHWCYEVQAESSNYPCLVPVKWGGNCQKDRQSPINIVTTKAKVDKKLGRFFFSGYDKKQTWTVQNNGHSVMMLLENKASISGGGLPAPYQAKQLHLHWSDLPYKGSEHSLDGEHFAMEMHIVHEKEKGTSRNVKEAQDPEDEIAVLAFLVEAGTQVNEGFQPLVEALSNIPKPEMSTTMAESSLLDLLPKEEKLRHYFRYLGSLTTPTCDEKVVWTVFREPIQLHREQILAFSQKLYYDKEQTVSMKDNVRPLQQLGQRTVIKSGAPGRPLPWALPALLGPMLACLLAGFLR
Experimental: as §1

hCA IX = hCA IX (Homo sapiens, UniProt Q16790); assay: Stopped flow CO2 hydrase assay, hCA IX
Experimental: as §1

hCA III = hCA III (Homo sapiens, UniProt P07451); assay: Stopped flow CO2 hydrase assay, hCA III
hCA III, sequence (P07451 whole entry): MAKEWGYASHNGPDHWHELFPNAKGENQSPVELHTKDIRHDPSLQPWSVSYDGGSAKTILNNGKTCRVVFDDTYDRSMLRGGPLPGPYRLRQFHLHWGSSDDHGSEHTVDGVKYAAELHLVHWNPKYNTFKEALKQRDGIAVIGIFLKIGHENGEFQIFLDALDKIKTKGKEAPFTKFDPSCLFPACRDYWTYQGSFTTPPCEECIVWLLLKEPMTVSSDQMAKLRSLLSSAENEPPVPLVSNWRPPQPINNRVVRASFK
Experimental: as §1

hCA VA = hCA VA (Homo sapiens, UniProt P35218); assay: Stopped flow CO2 hydrase assay, hCA VA
hCA VA, sequence (P35218 39-305): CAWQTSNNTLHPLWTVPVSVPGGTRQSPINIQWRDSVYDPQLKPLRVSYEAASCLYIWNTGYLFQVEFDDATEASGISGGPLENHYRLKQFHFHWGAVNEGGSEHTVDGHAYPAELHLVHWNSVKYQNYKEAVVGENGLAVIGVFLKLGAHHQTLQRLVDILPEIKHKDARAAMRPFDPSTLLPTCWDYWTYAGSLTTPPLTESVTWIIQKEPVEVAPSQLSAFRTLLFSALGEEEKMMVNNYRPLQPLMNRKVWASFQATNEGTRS
Experimental: as §1

hCA VII = hCA VII (Homo sapiens, UniProt P43166); assay: Stopped flow CO2 hydrase assay, hCA VII
hCA VII, sequence (P43166 whole entry): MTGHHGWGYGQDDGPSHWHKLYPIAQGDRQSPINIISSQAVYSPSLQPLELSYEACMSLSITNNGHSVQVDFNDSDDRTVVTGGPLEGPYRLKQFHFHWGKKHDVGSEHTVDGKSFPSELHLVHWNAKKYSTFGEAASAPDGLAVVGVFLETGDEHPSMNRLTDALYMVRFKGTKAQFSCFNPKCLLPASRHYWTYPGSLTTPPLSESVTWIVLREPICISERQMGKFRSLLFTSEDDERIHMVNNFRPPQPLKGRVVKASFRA
Experimental: as §1

[1] = parameters: method as in PMID 28940154; details: cited from earlier work
hCA VI = hCA VI (Homo sapiens, UniProt P23280); assay: Stopped flow CO2 hydrase assay, hCA VI
hCA VI, sequence (P23280 18-308): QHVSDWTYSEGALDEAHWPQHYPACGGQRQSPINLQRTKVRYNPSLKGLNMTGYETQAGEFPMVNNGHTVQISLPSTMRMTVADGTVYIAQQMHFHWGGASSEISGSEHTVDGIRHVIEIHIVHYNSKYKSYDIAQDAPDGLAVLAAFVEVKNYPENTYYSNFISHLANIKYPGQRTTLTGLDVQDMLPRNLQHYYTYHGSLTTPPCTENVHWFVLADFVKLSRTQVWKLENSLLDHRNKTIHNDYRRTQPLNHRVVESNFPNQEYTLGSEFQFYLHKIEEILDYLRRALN
Experimental: as §1

hCA XIII = hCA XIII (Homo sapiens, UniProt Q8N1Q1); assay: Stopped flow CO2 hydrase assay, hCA XIII
hCA XIII, sequence (Q8N1Q1 whole entry): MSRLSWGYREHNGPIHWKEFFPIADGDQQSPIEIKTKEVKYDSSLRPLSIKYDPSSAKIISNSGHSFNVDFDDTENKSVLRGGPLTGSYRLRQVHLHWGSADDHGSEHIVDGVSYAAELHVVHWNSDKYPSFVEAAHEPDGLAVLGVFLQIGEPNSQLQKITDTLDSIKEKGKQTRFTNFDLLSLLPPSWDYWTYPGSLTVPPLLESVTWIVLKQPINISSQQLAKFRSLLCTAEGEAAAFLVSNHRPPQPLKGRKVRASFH
Experimental: as §1

HIV = details: compared to efavirenz, cited from earlier work
hCA II = hCA II (Homo sapiens, UniProt P00918); assay: Stopped flow CO2 hydrase assay, hCA II
Experimental: as §1

hCA XII = hCA XII (Homo sapiens, UniProt O43570); assay: Stopped flow CO2 hydrase assay, hCA XII
hCA XII, sequence (O43570 25-354): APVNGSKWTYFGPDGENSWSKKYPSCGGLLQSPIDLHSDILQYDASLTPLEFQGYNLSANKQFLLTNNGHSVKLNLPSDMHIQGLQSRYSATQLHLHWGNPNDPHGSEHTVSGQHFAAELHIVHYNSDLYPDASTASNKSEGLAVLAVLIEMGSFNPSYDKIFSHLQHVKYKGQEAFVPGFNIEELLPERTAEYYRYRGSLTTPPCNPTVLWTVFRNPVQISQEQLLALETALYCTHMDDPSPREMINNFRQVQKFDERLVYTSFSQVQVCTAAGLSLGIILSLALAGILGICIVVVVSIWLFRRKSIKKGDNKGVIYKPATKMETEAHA
Experimental: as §1

hCA VB, sequence (Q9Y2D0 34-317): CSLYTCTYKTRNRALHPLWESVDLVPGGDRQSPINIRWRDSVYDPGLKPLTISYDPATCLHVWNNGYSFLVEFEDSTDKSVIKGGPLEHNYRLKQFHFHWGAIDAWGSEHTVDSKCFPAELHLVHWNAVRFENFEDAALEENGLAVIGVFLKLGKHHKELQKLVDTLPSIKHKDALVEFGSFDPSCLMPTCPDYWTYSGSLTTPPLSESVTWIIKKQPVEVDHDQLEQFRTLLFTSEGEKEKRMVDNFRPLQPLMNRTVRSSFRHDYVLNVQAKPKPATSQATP
hCA I, sequence (P00915 whole entry): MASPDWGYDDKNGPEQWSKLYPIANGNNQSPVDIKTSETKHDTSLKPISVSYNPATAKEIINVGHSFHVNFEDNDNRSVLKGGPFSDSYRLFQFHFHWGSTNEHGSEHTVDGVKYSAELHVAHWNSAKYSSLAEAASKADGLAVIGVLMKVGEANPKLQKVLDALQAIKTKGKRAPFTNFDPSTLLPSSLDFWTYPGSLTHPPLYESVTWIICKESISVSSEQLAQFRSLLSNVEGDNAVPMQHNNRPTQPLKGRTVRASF

SMILES: CCC(=O)NS(=O)(=O)c1ccc(NC(=O)Cc2ccc(Br)c(Oc3cc(Cl)cc(C#N)c3)c2F)c(Cl)c1 [elsulfavirine]
- Ki (hCA I): 52400 nM
- Ki (hCA VB): 14200 nM
- Ki (hCA XIV): 1960 nM
- Ki (hCA IV): > 100000 nM
- inhibition of hCA IV (in words) (hCA IV; stopped flow CO2 hydrase assay): virtually no inhibition
- Ki (hCA IX): 6650 nM
- Ki (hCA III): > 100000 nM
- inhibition of hCA III (in words) (hCA III; stopped flow CO2 hydrase assay): virtually no inhibition
- Ki (hCA VA): 4290 nM
- Ki (hCA VII): 2390 nM
- t1/2 of conversion to VM1500A ([1]; conversion of prodrug to active form): ~2 h
- Ki (hCA VI): 5670 nM
- Ki (hCA XIII): 4820 nM
- tolerability and side effects (HIV; patients): superior tolerability and fewer side effects
- virologic response (viral load and HIV RNA reduction) (HIV; treatment-naive patients): comparable to that of the patients treated with efavirenz
- Ki (hCA II): 12500 nM

SMILES: N#Cc1cc(Cl)cc(Oc2c(Br)ccc(CC(=O)Nc3ccc(S(N)(=O)=O)cc3Cl)c2F)c1 [VM1500A]
- Ki (hCA I): 514 nM
- Ki (hCA VB): 221 nM
- Ki (hCA XIV): 15.4 nM
- Ki (hCA IV): 158 nM
- Ki (hCA XII): 62.3 nM
- Ki (hCA IX): 72.1 nM
- Ki (hCA III): > 100000 nM
- Ki (hCA VA): 537 nM
- Ki (hCA VII): 9.7 nM
- selectivity towards hCA VII over the majority of other hCA isoforms (hCA VII; from Ki values): 1–2 orders of magnitude
- t1/2 of elimination ([1]; elimination of active form): > 120 h
- Ki (hCA VI): 125 nM
- Ki (hCA XIII): 52.2 nM
- Ki (hCA II): 35.5 nM
